The values that follow come from patent US4450173A, “Compounds and method for treatment or prophylaxis of cardiac disorders” (American Hospital Supply Corporation, priority 1982, dated 1984).

Series [1] deals with guinea pig tracheal strips (Cavia porcellus, UniProt Q8K4Z4). Description: cell-based. In kind it is cell-based. As to conditions: guinea pig trachea, carbachol tension, isoproterenol, 60 minute incubation, pA2 = -log KB. As to the method:
Each tissue was suspended between a fixed glass rod and a Statham® Universal Transducer connected to a Beckman® recorder. Atria were allowed to beat spontaneously under a loading tension of approximately 0.5 gm. Intrinsic depressant for stimulant activity was determined for each compound by progressively increasing concentrations in the tissue baths at 60-minute intervals. Tissues were not washed between increments. […] Changes in rate in response to isoproterenol were measured in the absence and presence of test compounds. Spiral strips of guinea pig trachea were suspended under 5 gm resting tension and incubated with phentolamine, tropolone and cocaine. Active tension was generated by addition of carbachol (3.0×10^-7 M) and decreases in tension in response to isoproterenol were quantitated. Cumulative concentration-response curves were produced with isoproterenol both before and after 60 minute incubation of test compounds with atria and trachea. The blocking potency of test compounds was estimated by computing pA2 values (-log KB) by the method of Furchgott, The Pharmacological Differentiation of Adrenergic Receptors, Ann. […] A ratio greater than one indicates cardioselectivity.

For series [2], the system named is heart rate response to isoproterenol (β-receptor mediated tachycardia). Put plainly: Duration of β-blockade in vivo in anesthetized dogs, 40-minute infusion. Details: species or system dog. The following applies: for ED50: Canis lupus familiaris, iv, 40 min, read-out: Potency (mg/kg/40 min); for 80% Recovery Time: after 40-minute infusion, normalized to 50% inhibition, dogs. How it is done: (§1) The duration of β-blockade was determined in vivo using pentobartital-anesthetized dogs instrumented for measurement of heart rate using a Beckman® cardiotachometer triggered electronically by a phasic aortic blood pressure signal. Both vagus nerves were severed in the cervical region and the animals were mechanically ventilated. Two experimental designs were used. The first employed a 40-minute infusion of test compound and the second used a 3-hour infusion of test compound. In the 40-minute model, isoproterenol was infused into a foreleg vein at the rate of 0.5 μg/kg/min to induce a β-receptor mediated tachycardia. Various doses of test compound are then infused into a femoral vein over a period of 40 minutes. This infusion was then terminated and recovery from blockade was quantitated. […] This cumulative dose is expressed as mg/kg and is an indication of potency. The time period required for 80% recovery of heart rate response for each dose of test drug was also measured to quantitate duration of action. […] Test compounds were dissolved in 0.9% NaCl and infused at a rate of 0.05 mL/kg/min or less. In the 3-hour infusion model, bolus doses of isoproterenol (0.4 μg/kg) were used to assess the degree of β-blockade and recovery from β-blockade after termination of the infusion. The doses were spaced at 10-minute intervals and were given before, during and following the infusion of test compounds. The infusion rate was adjusted so that at the end of the 3-hour infusion period the degree of isoproterenol inhibition averaged about 50% of control.

Series [3] in a line: Disappearance in vitro in dog liver homogenate. As to conditions: 50 μg in 1 mL added to 1 mL of 33% (w/v) dog liver homogenate, 37° C.; read-out: T1/2 Dog Liver Homogenate. In kind it is in vitro ADME. As to the method:
(§2) The rate of disappearance of a compound is expressed as the half-life (T1/2), which is the time period in which one-half of the initial amount of compound tested disappears. In each experiment, 1 mL of a solution containing 50 μg of the test compound was added to 1 mL of whole blood or 1 mL of a 33% (w/v) liver homogenate. […] At the designated time periods, the test mixtures were removed from the incubator and transferred to a 0° C. ice bath. Acetonitrile (2 mL) was immediately added and the mixtures were mixed to stop enzymatic hydrolysis. Zero time samples were prepared by adding 2 mL of acetonrile to denature the proteins prior to addition of the test compounds. […] The half life of each test compound was determined graphically by plotting the decrease in concentration as a function of time.

The nature of series [4]: Disappearance in vitro in dog whole blood. In kind it is in vitro ADME. The following applies: 50 μg in 1 mL added to 1 mL dog whole blood, 37° C.; read-out: T1/2 Dog Whole Blood. How it is done: as §2
Series [5] in a line: Disappearance in vitro in human whole blood. As to conditions: 50 μg in 1 mL added to 1 mL human whole blood, 37° C.; read-out: T1/2 Human Whole Blood. The format is in vitro ADME. How it is done:
as §2

For series [6], the system named is guinea pig right atria and guinea pig tracheal strips. Put plainly: Cardioselectivity, KB tracheal/KB atrial. In kind it is cell-based. As to the method: Several of the compounds of the present invention were tested for β-blocking activity in vitro using guinea pig right atria and guinea pig tracheal strips mounted in a tissue bath containing oxygenated (95% O2 -5% CO2) Krebs physiological salt solution at 37° C. Each tissue was suspended between a fixed glass rod and a Statham® Universal Transducer connected to a Beckman® recorder. Atria were allowed to beat spontaneously under a loading tension of approximately 0.5 gm. Intrinsic depressant for stimulant activity was determined for each compound by progressively increasing concentrations in the tissue baths at 60-minute intervals. Tissues were not washed between increments. […]. Changes in rate in response to isoproterenol were measured in the absence and presence of test compounds. Spiral strips of guinea pig trachea were suspended under 5 gm resting tension and incubated with phentolamine, tropolone and cocaine. Active tension was generated by addition of carbachol (3.0×10^-7 M) and decreases in tension in response to isoproterenol were quantitated. Cumulative concentration-response curves were produced with isoproterenol both before and after 60 minute incubation of test compounds with atria and trachea. The blocking potency of test compounds was estimated by computing pA2 values (-log KB) by the method of Furchgott, The Pharmacological Differentiation of Adrenergic Receptors, Ann. N.Y. Acad. Sci.; 139: 553-570 (1967). Comparison of blockade of right atrial and tracheal responses to isoproterenol permitted assessment of cardioselectivity of test compounds; […]. A ratio greater than one indicates cardioselectivity. […]

Series [7] deals with heart rate response to isoproterenol. Put plainly: Duration of β-blockade in vivo in anesthetized dogs, 3-hour infusion. Further details: species or system dog. The following applies: for ED50: Canis lupus familiaris, iv, 3-hour infusion, read-out: Potency (mg/kg/180 min); for ED50 / % I (Percent inhibition of heart rate response to isoproterenol): bolus isoproterenol 0.4 μg/kg; for 80% Recovery Time: after 3-hour infusion; for % I (Percent inhibition of heart rate response to isoproterenol): end of 3-hour infusion. As to the method: as §1

[8] abbreviates: ratio KB tracheal/KB atrial, greater than one indicates cardioselectivity.

Each structure is given as a SMILES string. Like-named read-outs stand apart in the source and are kept apart here.

Sequence of guinea pig tracheal strips (Q8K4Z4 whole entry): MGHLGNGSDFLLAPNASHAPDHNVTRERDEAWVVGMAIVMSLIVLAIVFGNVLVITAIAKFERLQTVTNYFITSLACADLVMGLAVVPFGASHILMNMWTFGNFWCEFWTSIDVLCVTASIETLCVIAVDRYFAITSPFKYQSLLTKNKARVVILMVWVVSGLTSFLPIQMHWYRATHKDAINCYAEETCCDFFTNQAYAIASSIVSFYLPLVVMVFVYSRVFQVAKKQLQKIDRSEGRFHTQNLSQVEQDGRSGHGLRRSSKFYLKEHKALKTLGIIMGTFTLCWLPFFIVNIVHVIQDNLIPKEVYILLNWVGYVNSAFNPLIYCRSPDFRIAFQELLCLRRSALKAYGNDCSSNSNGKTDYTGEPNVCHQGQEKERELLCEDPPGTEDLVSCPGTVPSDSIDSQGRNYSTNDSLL

`CCOC(=O)CCCCNCC(O)COc1ccccc1C` (centres unmarked) [XII]: the “pA2 Trachea” value in series [1] is listed as 7.4. Also, the ED50 in series [2] turned out to be 6.8 ± 3.7 mg/kg. Further, the “80% Recovery Time” value in series [2] was determined as 11 ± 2 min. Further, the half-life in series [3] stood at 8.8 ± 6 min; in series [4], 2.53 ± 1.18 h; in series [5], 1.55 ± 0.5 h. Moreover, the Cardioselectivity in series [6] is recorded as 2.5.
Take `CCOC(=O)CCNCC(O)COc1cccc(Cl)c1` (centres unmarked) [XXII]: in series [1], the “pA2 Trachea” value amounted to 6.7. For the same compound, in series [3], the half-life was determined as 3 ± 3 min. The half-life in series [4] was found to be 0.667 ± 0.25 h. In addition, the half-life in series [5] was 1.97 ± 0.433 h. Moreover, the Cardioselectivity in series [6] (setting [8]) came to 5. Further, in series [7], the ED50 turned out to be 8.5 mg/kg, the “80% Recovery Time” value was more than 60 min and the “% I (Percent inhibition of heart rate response to isoproterenol)” value was 77%.
`CCOC(=O)CCNCC(O)COc1ccccc1Cl` (centres unmarked) [XXI]: in series [1], the “pA2 Trachea” value came out at 6.6. Further, the half-life in series [3] amounted to 4 ± 3 min; in series [4], 1.23 ± 0.35 h; in series [5], 2.12 ± 0.833 h. The Cardioselectivity in series [6] (setting [8]) came to 6. In addition, the ED50 in series [7] turned out to be 10.9 mg/kg. Besides, the “80% Recovery Time” value in series [7] was more than 60 min. Besides, the “% I (Percent inhibition of heart rate response to isoproterenol)” value in series [7] is 77%.
Regarding `CCOC(=O)CCNCC(O)COc1ccc(OC)cc1` (centres unmarked) [XXV], the ED50 in series [2] was found to be 17.2 ± 1.2 mg/kg. Also, the “80% Recovery Time” value in series [2] turned out to be 11 ± 2 min. For the same compound, the half-life is 4 ± 2.5 min in series [3], more than 3 h in series [4] and 2.63 ± 0.133 h in series [5].
Turning to `CCOC(=O)CCNCC(O)COc1ccccc1C` (centres unmarked) [X], the “pA2 Trachea” value in series [1] came out at 7.4. The ED50 was determined as 0.99 ± 0.27 mg/kg in series [2] and 6.8 mg/kg in series [7]. Moreover, the “80% Recovery Time” value is 14 ± 2 min in series [2] and more than 60 min in series [7]. Also, the half-life worked out at 3 ± 1 min in series [3], 3 h in series [4] and 2.58 ± 0.15 h in series [5]. Besides, the Cardioselectivity in series [6] (setting [8]) was determined as 1. Besides, the “% I (Percent inhibition of heart rate response to isoproterenol)” value in series [7] was found to be 69 ± 5%.
